Reference: patent US8067424B2, “Selective inhibitors for cyclin-dependent kinases” (Emory University, priority 2007, dated 2011)
Like-named read-outs stand apart in the source and are kept apart here.

Key:
Assay type in all cases: biochemical
p38γ MAPK = target: T1, p38γ MAPK (Homo sapiens, UniProt P53778); experiment: Kinase screen: SAPK 3/p38g assay
T1 sequence (P53778 1-367): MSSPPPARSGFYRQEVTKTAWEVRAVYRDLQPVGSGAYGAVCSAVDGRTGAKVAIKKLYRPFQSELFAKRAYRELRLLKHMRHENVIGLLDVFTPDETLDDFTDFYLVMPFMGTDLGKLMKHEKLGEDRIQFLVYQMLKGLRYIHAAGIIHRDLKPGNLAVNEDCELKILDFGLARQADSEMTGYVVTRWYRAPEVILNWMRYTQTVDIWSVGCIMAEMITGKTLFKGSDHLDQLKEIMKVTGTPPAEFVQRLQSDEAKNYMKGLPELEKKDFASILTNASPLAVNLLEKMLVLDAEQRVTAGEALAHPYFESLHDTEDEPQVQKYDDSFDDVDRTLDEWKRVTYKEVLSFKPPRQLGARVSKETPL
Experimental: (§1) Generally, the same procedure was used for all assays. Since the total assay volume was 25.5 microliters, 0.5 microliters of inhibitors at 51× assay concentration were added to the plates before any other addition.
(§2) The basic procedure was to add 0.5 microliters inhibitor/control in DMSO to plate. Fifteen microliters of enzyme/substrate/buffer mix were added and incubated for 5 min. Ten microliters MgATP at the relevant concentration were added and incubated for 30 min. The assay was stopped by adding 5 microliters of 3% orthophosphoric acid. The assay was transferred to a p81 filter plate and read in a scintillation counter of 30 sec/well. Note that this assay procedure was not followed for MKK1, which instead involved a two-step assay, and PKC alpha, which required the addition of lipid vesicles.
SAPK 3/p38g assay: SAPK 3/p38g (5-20 mU diluted in 50 mM Tris pH 7.5, 0.1 mM EGTA, 0.1 mM Na3VO4, 0.1% b-mercaptoethanol, 1 mg/ml BSA) was assayed against MBP in a final volume of 25.5 μl containing 25 mM Tris pH 7.5, 0.1 mM EGTA, 0.33 mg/ml MBP, 10 mM magnesium acetate and 0.005 mM [33P-g-ATP] (50-1000 cpm/pmole) and incubated for 30 min at room temperature. Assays were stopped by addition of 5 μl of 0.5 M (3%) orthophosphoric acid and then harvested onto P81 Unifilter plates with a wash buffer of 50 mM orthophosphoric acid.

PKA = PKA (Homo sapiens, UniProt P17612); experiment: Kinase screen: PKA assay
Experimental: as §1, §2
PKA assay: PKA (5-20 mU diluted in 20 mM MOPS pH 7.5, 1 mM EDTA, 0.01% Brij35, 0.1% b-mercaptoethanol, 1 mg/ml BSA) was assayed against Kemptide (LRRASLG) (SEQ ID NO: 6) in a final volume of 25.5 μl containing 8 mM MOPS pH 7.5, 0.2 mM EDTA, 30 μM substrate peptide, 10 mM magnesium acetate and 0.005 mM [33P-g-ATP] (50-1000 cpm/pmole) and incubated for 30 min at room temperature. Assays were stopped by addition of 5 μl of 0.5 M (3%) orthophosphoric acid and then harvested onto P81 Unifilter plates with a wash buffer of 50 mM orthophosphoric acid.

PRK2 = PRK2 (Homo sapiens, UniProt Q16513); experiment: Kinase screen: PRK2 assay
Experimental: as §1, §2
PRK2 assay: 5-20 mU of PRK2 (diluted in 50 mM Tris (pH 7.5), 0.1 mM EGTA, 1 mg/ml BSA, 0.1%, b-Mercaptoethanol) was assayed against Long S6 peptide ([…]) (SEQ ID NO: 10) in a final volume of 25.5 μl containing 50 mM Tris (pH 7.5), 0.1 mM EGTA, 0.1%, b-Mercaptoethanol, 30 μM Long S6 peptide, 10 mM magnesium acetate and 0.005 mM [33P-g-ATP] (500-1000 cpm/pmole) and incubated for 30 mins at room temperature. Assays were stopped by addition of 5 μl of 0.5M (3%) orthophosphoric acid. Assays were harvested onto P81 Unifilter plates using a wash buffer of 50 mM orthophosphoric acid.

SmMLCK = SmMLCK (Homo sapiens, UniProt Q15746); experiment: Kinase screen: smMLCK assay
Experimental: as §1, §2
(500-1000 cpm/pmole) and incubated for 30 mins at room temperature. Assays were stopped by addition of 5 μl of 0.5M (3%) orthophosphoric acid. Assays were harvested onto P81 Unifilter plates using a wash buffer of 50 mM orthophosphoric acid.

PHK = experiment: Kinase screen: PBK assay (phosphorylase b peptide); conditions: for mean activity remaining (as a percentage of the original activity), PHK: 10 micromolar compound
Experimental: as §1, §2
PBK assay: PBK (5-20 mU diluted in 50 mM Na-b-glycerophosphate pH 7.0, 0.1% b-mercaptoethanol) was assayed against phosphorylase b peptide ([…]) (SEQ ID NO: 14) in a final volume of 25.5 μl containing 50 mM Tris pH 8.6, 50 mM Na-b-glycerophosphate, 0.04 mM CaCl2, phosphorylase b peptide (0.196 mM), 10 mM magnesium acetate, 0.02 mM [33P-g-ATP] (500-1000 cpm/pmole) then incubated for 15 min at room temperature. Assays were stopped by addition of 5 μl of 0.5 M (3%) orthophosphoric acid and then harvested onto P81 Unifilter plates with a wash buffer of 50 mM orthophosphoric acid.

PIM1 = PIM1 (Homo sapiens, UniProt P11309); experiment: Kinase screen: PIM1 assay
Experimental: as §1, §2
PIM1 assay: PIM1 (5-20 mU diluted in 50 mM Tris pH 7.5, 0.1 mM EGTA, 0.1% b-mercaptoethanol, 1 mg/ml BSA) was assayed against a substrate peptide ([…]) (SEQ ID NO: 23) in a final volume of 25.5 μl containing 50 mM Tris pH 7.5, 0.05% b-mercaptoethanol, 300 μM substrate peptide, 10 mM magnesium acetate and 0.02 mM [33P-g-ATP] (50-1000 cpm/pmole) and incubated for 30 min at room temperature. Assays were stopped by addition of 5 μl of 0.5 M (3%) orthophosphoric acid and then harvested onto P81 Unifilter plates with a wash buffer of 50 mM orthophosphoric acid.

[1] = 10 micromolar compound, read-out: mean activity remaining (as a percentage of the original activity), p38g MAPK
[2] = 10 micromolar compound, read-out: mean activity remaining (as a percentage of the original activity), PKA
[3] = 10 micromolar compound, read-out: mean activity remaining (as a percentage of the original activity), PRK2
[4] = 10 micromolar compound, read-out: mean activity remaining (as a percentage of the original activity), SmMLCK
[5] = 10 micromolar compound, read-out: mean activity remaining (as a percentage of the original activity), PIM1

CC(C)c1cnn2c(NCc3ccccc3F)cc(NCCCCCN)nc12 [ICEC-0232]
mean activity remaining (as a percentage of the original activity), p38g MAPK (p38γ MAPK; 10 micromolar compound): 91%
mean activity remaining (as a percentage of the original activity), PKA (PKA; 10 micromolar compound): 96%
mean activity remaining (as a percentage of the original activity), PRK2 (PRK2; 10 micromolar compound): 106%
mean activity remaining (as a percentage of the original activity), SmMLCK (SmMLCK; 10 micromolar compound): 38%
mean activity remaining (as a percentage of the original activity), PHK (PHK): 10%
mean activity remaining (as a percentage of the original activity), PIM1 (PIM1; 10 micromolar compound): 110%

CC(C)c1cnn2c(NCc3ccccc3)cc(NCCCCCCCN)nc12 [BS-181]
remaining activity at 10 µM (p38γ MAPK; p38γ MAPK, 10 μM, read-out: Mean Remaining Enzyme Activity (%)): 108%
remaining activity at 10 µM (PKA; PKA, 10 μM, read-out: Mean Remaining Enzyme Activity (%)): 110%
remaining activity at 10 µM (PRK2; PRK2, 10 μM, read-out: Mean Remaining Enzyme Activity (%)): 90%
remaining activity at 10 µM (SmMLCK; SmMLCK, 10 μM, read-out: Mean Remaining Enzyme Activity (%)): 35%
Mean Remaining Enzyme Activity (%) (PHK; PHK, 10 μM): 49%
remaining activity at 10 µM (PIM1; PIM1, 10 μM, read-out: Mean Remaining Enzyme Activity (%)): 88%

CC[C@H](CO)Nc1cc(NCc2ccccc2)n2ncc(C(C)C)c2n1 [ICEC0067]
remaining activity at 10 µM (p38γ MAPK; [1]): 82%
remaining activity at 10 µM (PKA; [2]): 93%
remaining activity at 10 µM (PRK2; [3]): 96%
remaining activity at 10 µM (SmMLCK; [4]): 81%
mean activity remaining (as a percentage of the original activity), PHK (PHK): 68%
remaining activity at 10 µM (PIM1; [5]): 107%

C=C[C@H](CO)Nc1cc(NCc2ccccc2)n2ncc(C(C)C)c2n1 [ICEC0065]
remaining activity at 10 µM (p38γ MAPK; [1]): 108%
remaining activity at 10 µM (PKA; [2]): 107%
remaining activity at 10 µM (PRK2; [3]): 105%
remaining activity at 10 µM (SmMLCK; [4]): 92%
mean activity remaining (as a percentage of the original activity), PHK (PHK): 68%
remaining activity at 10 µM (PIM1; [5]): 113%

CC(C)c1cnn2c(NCc3ccccc3)cc(N[C@@H](CO)[C@H](O)CO)nc12 [ICEC0318, (3S)-3-(7-(Benzylamino)-3-isopropylpyrazolo[1,5-a]pyrimidin-5-ylamino)butane-1,2,4-triol]
remaining activity at 10 µM (p38γ MAPK; [1]): 112%
remaining activity at 10 µM (PKA; [2]): 93%
remaining activity at 10 µM (PRK2; [3]): 106%
remaining activity at 10 µM (SmMLCK; [4]): 101%
mean activity remaining (as a percentage of the original activity), PHK (PHK): 62%
remaining activity at 10 µM (PIM1; [5]): 103%
